Results reported in PubChem BioAssay (NCI).
Several values for one entry are separate records, joined by “and”; a condition that tells them apart may be missing. Identical values can stand only once.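 Compound exposure: 48 hours, 5 concentrations, 96-well plates. GI50: concentration for 50% inhibition of growth. TGI: total growth inhibition.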

How the values were obtained:
Assay in all cases: DTP human tumour cell line panel, 48 h
[1] = test system: MOLT-4 leukemia
[2] = test system: MDA-MB-231 breast
[3] = test system: UACC-257 melanoma
[4] = test system: KM12 colon
[5] = test system: HT29 colon
[6] = test system: MALME-3M melanoma
[7] = test system: TK-10 renal
[8] = test system: RPMI-8226 leukemia
[9] = test system: U251 CNS
[10] = test system: HCC-2998 colon

Structure (SMILES)	TGI [1]	TGI [2] [µM]	TGI [3] [µM]	TGI [4]	TGI [5]	TGI [6]	TGI [7] [µM]	TGI [8]	TGI [9]	TGI [10]	GI50 [1] [µM]	GI50 [4] [µM]	GI50 [5] [µM]	GI50 [6] [µM]	GI50 [8] [µM]	GI50 [9] [µM]	GI50 [10] [µM]	GI50 [2] [µM]	GI50 [3] [µM]	GI50 [7] [µM]
C=CCOn1c(C=C)nc2ccc(C)cc21	68.8 µM	48.1	32.3	44.2 µM	30.2 µM	38.9 µM	32.4	24.9 µM	26 µM	33 µM	–	–	–	–	–	–	–	–	–	–
COc1ccc(C(SC2C(O)C(CO)OC2n2ccc(=O)[nH]c2=O)(c2ccccc2)c2ccc(OC)cc2)cc1 (stereo not given)	> 100 µM	31	33.5	39.2 µM	35.6 µM	36.7 µM	57	> 100 µM	30 µM	30.3 µM	–	–	–	–	–	–	–	–	–	–
C/C(=N\Nc1nc2cc(C(F)(F)F)ccc2s1)c1ccccn1	–	0.791	> 31.2	9.03 µM	1.81 µM	8.9 µM	17.3	> 85.2 µM	–	18.3 µM	–	–	–	–	–	–	–	–	–	–
CC(=O)NC1C(OCc2ccccc2)OC(CO)C(O)C1OC(C)C(=O)NC(C(=O)NC(CCC(=O)NCCCCNc1c2ccccc2nc2cccc([N+](=O)[O-])c12)C(N)=O)C(C)C (stereo not given)	26.8 µM	25.5	15.9	7.68 µM	8.71 µM	4.08 µM	32.4	2.39 µM	> 56.7 µM	3.47 µM	–	–	–	–	–	–	–	–	–	–
O=c1[nH]n(Cc2ccccc2)c2ccc([N+](=O)[O-])cc12	> 100 µM	78.6	> 100	> 100 µM	> 100 µM	> 100 µM	> 100	> 100 µM	> 100 µM	> 100 µM	–	–	–	–	–	–	–	–	–	–
CC(C)(C)n1c(=O)[nH]c(=O)n1C(C)(C)C	> 100 µM	> 100	> 100	> 100 µM	> 100 µM	> 100 µM	> 100	–	> 100 µM	> 100 µM	–	–	–	–	–	–	–	–	–	–
Cc1ccccc1N=C(N)Nc1ccccc1C	> 100 µM	> 100	> 100	> 100 µM	> 100 µM	> 100 µM	> 100	> 100 µM	> 100 µM	62.1 µM	–	–	–	–	–	–	–	–	–	–
Nc1nc(Cl)cc(NC23CC4CC(CC(C4)C2)C3)n1	> 100 µM	> 100	> 100	> 100 µM	–	> 100 µM	–	> 100 µM	> 100 µM	> 100 µM	–	–	–	–	–	–	–	–	–	–
C=C=C(CC(CC(=C)Br)(C(=O)OC)C(=O)OC)S(=O)(=O)c1ccccc1	> 100 µM	4.93	5.88	5.81 µM	2.95 µM	4.11 µM	4.8	4.37 µM	2.95 µM	9.18 µM	–	–	–	–	–	–	–	–	–	–
Cc1cc(C)c2c(c1)C(=O)/C(=C/c1ccccc1C(=O)O)C2	> 100 µM	> 100	> 100	> 100 µM	> 100 µM	> 100 µM	> 100	> 100 µM	> 100 µM	> 100 µM	–	–	–	–	–	–	–	–	–	–
CC1=C2C(=CO[C@H](C)[C@H]2C)C(=O)C(C(=O)O)=C1O	40 µM and > 93.6 µM	58.5	> 87.8	87.5 µM and 48.8 µM	63.9 µM and 88.9 µM	54.4 µM and 115 µM	63.7	63.3 µM and 58.3 µM	43.4 µM and 41 µM	42.6 µM and 57.9 µM	34.1	19.2	18.3	21	25.4	18.8	23.7	–	–	–
CN1CC2=C(NC(=S)NC2c2ccccc2)/C(=C/c2ccccc2)C1 (stereo not given)	44.7 µM	> 10	> 100	68 µM	71.7 µM	> 100 µM	> 100	> 100 µM	> 100 µM	> 100 µM	–	–	–	–	–	–	–	–	–	–
COc1ccc2[nH]c(O)c(/C=c3/cc4c(c(-c5ccc(F)c(OC)c5)n3)=Nc3ccccc3-4)c2c1	5.68 µM	3.14	8.86	7.3 µM	4 µM	3.92 µM	6.95	5.53 µM	3.21 µM	4.62 µM	2.3	2.58	2.03	2.03	2.04	1.7	2.13	1.47	2.81	2.91
NN=C(CC(O)(C(F)(F)Cl)C(F)(F)Cl)CC(O)(C(F)(F)Cl)C(F)(F)Cl	> 10 µM	> 10	> 10	> 10 µM	> 10 µM	> 10 µM	> 10	> 10 µM	> 10 µM	> 10 µM	–	–	–	–	–	–	–	–	–	–
Cc1ccc(S(=O)CC(CF)OCn2cc(C)c(=O)[nH]c2=O)cc1 (stereo not given)	> 100 µM	> 100	–	> 100 µM	–	> 100 µM	> 100	> 100 µM	> 100 µM	> 100 µM	–	–	–	–	–	–	–	–	–	–
CCc1cc2c(c3c1CCCC3=O)CC1(Cc3ccc(C(=O)OC)cc3C1)C2 (stereo not given)	> 100 µM	> 100	> 100	> 100 µM	> 100 µM	> 100 µM	> 100	91 µM	> 100 µM	> 100 µM	–	–	–	–	–	–	–	–	–	–
CN(C)/N=N/c1nc2c(c(=O)n(C)c(=O)n2C)n1CC(O)CO (stereo not given)	> 100 µM	> 100	> 100	> 100 µM	> 100 µM	> 100 µM	> 100	> 100 µM	> 100 µM	> 100 µM	–	–	–	–	–	–	–	–	–	–
O=C(N/N=C/C=C/c1ccccc1)c1ccccc1Nc1ccccc1C(=O)N/N=C/C=C/c1ccccc1	> 100 µM	> 100	> 100	> 100 µM	> 100 µM	> 100 µM	> 100	> 100 µM	> 100 µM	> 100 µM	–	–	–	–	–	–	–	–	–	–
COc1cc(C2C3=C(COC3=O)Oc3cc4c(cc32)OCO4)cc(OC)c1O (stereo not given)	26 µM	> 24.9	> 61.7	> 100 µM	0.984 µM	39.5 µM	63.8	> 41.9 µM	14 µM	0.121 µM	–	–	–	–	–	–	–	–	–	–
O=C(Cc1ccc(Cl)c(Cl)c1)NCC1(N2CCCCC2)CCCCC1	> 100 µM	> 100	36.7	> 100 µM	> 100 µM	47.2 µM	> 100	> 100 µM	> 100 µM	39.1 µM	–	–	–	–	–	–	–	–	–	–
